# Experiments:
# [1] = Drug uptake in mouse RAW264.7 cells assessed as ratio of drug level (cell lysate)/(drug level (supernatant) + drug level (cell lysate) at 10 ug/ml incubated for 3 hrs by HPLC method; format: ADME, cell-based; settings: raw264.7, 3 h
# Peritoneal macrophage [2] = assay: Cytotoxicity against BALB/c mouse peritoneal macrophages after 48 hrs by MTT assay; format: cell-based
# Leishmania donovani [3] = assay: Antileishmanial activity against Leishmania donovani MHOM/IN/AG/83 amastigotes infected in BALB/c mouse peritoneal macrophages after 42 hrs by Giemsa staining-based microscopic analysis; format: functional, organism-based; settings: MHOM/IN/AG/83, 42 h
# [4] = Drug uptake in mouse RAW264.7 cells assessed as retention time at 10 ug/ml incubated for 3 hrs by HPLC method; format: ADME, cell-based; settings: raw264.7, 3 h
# Peritoneal macrophage [5] = assay: Induction of NO generation in Leishmania donovani MHOM/IN/AG/83 infected BALB/c mouse peritoneal macrophages assessed as nitrite levels after 48 hrs by Griess assay relative to untreated control; format: functional
# [6] = Therapeutic index, ratio of EC50 for BALB/c mouse peritoneal macrophages to EC50 for Leishmania donovani MHOM/IN/AG/83 amastigotes; format: toxicity; settings: read-out: Ratio EC50
# RAW264.7 = assay: Cytotoxicity against mouse RAW264.7 cells after 48 hrs by MTT assay; format: cell-based; settings: RAW264.7, 48 h
# Leishmania donovani [7] = assay: Antileishmanial activity against Leishmania donovani MHOM/IN/AG/83 promastigotes after 48 hrs by MTT assay; format: functional, organism-based; settings: MHOM/IN/AG/83, 48 h
# [8] = Therapeutic index, ratio of IC50 for mouse RAW264.7 cells to IC50 for Leishmania donovani MHOM/IN/AG/83 promastigotes; format: toxicity; settings: read-out: Ratio IC50
Compound,Ratio [1],EC50 (Peritoneal macrophage [2]) [µM],EC50 (Leishmania donovani [3]) [µM],Retention_time [4] [min],Activity (Peritoneal macrophage [5]),Activity (Peritoneal macrophage [5]; record 2) [µM],selectivity ratio [6],IC50 (RAW264.7) [µM],IC50 (Leishmania donovani [7]) [µM],selectivity ratio [8]
C=CCc1ccc(O)c(OC)c1 [EUGENOL],0.21,476,173,3.133,Dose-dependent effect,7.45,2.75,527,442,1.19
C=CCc1ccc(OCCC)c(OC)c1 [PROPYLEUGENOL],,111,156,,Dose-dependent effect,10.64,0.71,110,133,0.83
C=CCc1ccc(OC(=O)CCCC)c(OC)c1,,353,65.6,,Dose-dependent effect,24.39,5.41,368,106,3.49
C=CCc1ccc(OC(=O)CCCCCCC)c(OC)c1,,565,53.3,,Dose-dependent effect,24.23,11,580,68.3,8.95
C=CCc1ccc(OC(=O)CCCCCCCCCCC)c(OC)c1,,498,19.6,,Dose-dependent effect,34.28,25.9,529,56.2,9.36
C=CCc1ccc(OC(=O)C2CCNCC2)c(OC)c1,,307,66.3,,Dose-dependent effect,21.55,4.66,261,89,2.96
C=CCc1ccc(OC(=O)c2ccccc2Cl)c(OC)c1,,275,57.9,,Dose-dependent effect,14.58,4.79,251,64.5,3.91
C=CCc1ccc(OC(=O)c2ccc([N+](=O)[O-])cc2)c(OC)c1,,244,26.7,,Dose-dependent effect,27.28,9.21,261,82.4,3.18
C[C@@H]1[C@H](O)[C@@H](C)/C=C/C=C/C=C/C=C/C=C/C=C/C=C/[C@H](O[C@@H]2O[C@H](C)[C@@H](O)[C@H](N)[C@@H]2O)C[C@@H]2O[C@](O)(C[C@@H](O)C[C@@H](O)[C@H](O)CC[C@@H](O)C[C@@H](O)CC(=O)O[C@H]1C)C[C@H](O)[C@H]2C(=O)O [AMPHOTERICIN B],,9.18,1.18,,Dose-dependent effect,,7.78,10,1.36,7.4
C=CCc1ccc(OC(=O)c2cccc([N+](=O)[O-])c2)c(OC)c1,,218,26.2,,Dose-dependent effect,24.58,8.36,255,76.9,3.33
C=CCc1ccc(OC(C)=O)c(OC)c1 [EUGENYL ACETATE],,352,99.1,,Dose-dependent effect,12.44,3.59,356,166,2.15
C=CCOc1ccc(CC=C)cc1OC [ALLYLEUGENOL],,353,120,,Dose-dependent effect,13.86,2.95,385,238,1.64
